The test concerns L1210 leukemia ip in BDF1 mice, survival T/C. Briefly: NCI In Vivo Anticancer Drug Screen. Data for tumor model L1210 Leukemia (intraperitoneal) in B6D2F1 (BDF1) mice. The settings on record: endpoint: mean survival time, higher = longer survival. The gist of the method:
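Tumor was transplanted into mice, which were then dosed with test compound or vehicle alone. Survival was recorded for each group, and the treated figure was expressed relative to the control figure.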

Where [1] appears, read: dose: 100.0 mg/kg/injection, schedule: Q04DX003 (ip), vehicle: saline with Tween-80.
Setting [2] is: dose: 100.0 mg/kg/injection, schedule: Q01DX009 (ip), vehicle: saline.
Where [3] appears, read: dose: 200.0 mg/kg/injection, schedule: Q01DX009 (ip), vehicle: saline.
The mark [4] stands for this setting: dose: 100.0 mg/kg/injection, schedule: Q04DX003 (ip), vehicle: Klucel (hydroxypropylcellulose) (HPC).
[5] abbreviates: dose: 200.0 mg/kg/injection, schedule: Q04DX003 (ip), vehicle: Klucel (hydroxypropylcellulose) (HPC).
Setting [6] is: dose: 400.0 mg/kg/injection, schedule: Q04DX003 (ip), vehicle: Klucel (hydroxypropylcellulose) (HPC).
[7] abbreviates: dose: 100.0 mg/kg/injection, schedule: Q04DX002 (ip), vehicle: Klucel (hydroxypropylcellulose) (HPC).
Setting [8] is: dose: 200.0 mg/kg/injection, schedule: Q04DX002 (ip), vehicle: Klucel (hydroxypropylcellulose) (HPC).
Where [9] appears, read: dose: 400.0 mg/kg/injection, schedule: Q04DX002 (ip), vehicle: Klucel (hydroxypropylcellulose) (HPC).
The mark [10] stands for this setting: dose: 100.0 mg/kg/injection, schedule: Q01DX001 (ip), vehicle: saline.
Where [11] appears, read: dose: 200.0 mg/kg/injection, schedule: Q01DX001 (ip), vehicle: saline.
Setting [12] is: dose: 400.0 mg/kg/injection, schedule: Q01DX001 (ip), vehicle: saline.
The mark [13] stands for this setting: dose: 100.0 mg/kg/injection, schedule: Q01DX001 (ip), vehicle: saline with Tween-80.
Where [14] appears, read: dose: 200.0 mg/kg/injection, schedule: Q01DX001 (ip), vehicle: saline with Tween-80.

Structures are written as SMILES. Where “and” joins values, the source holds several entries; their conditions need not be identical. Equal entries are not always repeated. Inconclusive results and toxic doses are left out.

As to `O=C(CN1CC1)NCCCCCCCCNC(=O)CN1CC1`, the T/C is 108 % of control (dose: 4.4 mg/kg/injection, schedule: Q01DX001 (ip), vehicle: carboxymethylcellulose (CMC)); 115 % of control (dose: 6.6 mg/kg/injection, schedule: Q01DX001 (ip), vehicle: carboxymethylcellulose (CMC)); 97 % of control (dose: 7.0 mg/kg/injection, schedule: Q01DX009 (ip), vehicle: carboxymethylcellulose (CMC)); 117 % of control (dose: 10.0 mg/kg/injection, schedule: Q01DX001 (ip), vehicle: carboxymethylcellulose (CMC)); 112 % of control (dose: 11.0 mg/kg/injection, schedule: Q01DX009 (ip), vehicle: carboxymethylcellulose (CMC)); 117 % of control (dose: 15.0 mg/kg/injection, schedule: Q01DX001 (ip), vehicle: carboxymethylcellulose (CMC)). Further, the T/C was 118 % of control (dose: 25.0 mg/kg/injection, schedule: Q01DX009 (ip), vehicle: carboxymethylcellulose (CMC)); 183 % of control (dose: 33.0 mg/kg/injection, schedule: Q01DX009 (ip), vehicle: carboxymethylcellulose (CMC)); 154 % of control (dose: 40.0 mg/kg/injection, schedule: Q04DX003 (ip), vehicle: Klucel (hydroxypropylcellulose) (HPC)); 152 % of control (dose: 50.0 mg/kg/injection, schedule: Q01DX001 (ip), vehicle: carboxymethylcellulose (CMC)); 104 % of control (dose: 50.0 mg/kg/injection, schedule: Q01DX009 (ip), vehicle: carboxymethylcellulose (CMC)); 173 % of control (dose: 60.0 mg/kg/injection, schedule: Q04DX003 (ip), vehicle: Klucel (hydroxypropylcellulose) (HPC)). The T/C (dose: 90.0 mg/kg/injection, schedule: Q04DX003 (ip), vehicle: Klucel (hydroxypropylcellulose) (HPC)) is 97 % of control.
With `COc1cccc(C(=O)c2ccccc2NC(C)=O)c1`, the T/C was 93 % of control under setting [1]; 94 % of control (dose: 200.0 mg/kg/injection, schedule: Q04DX003 (ip), vehicle: saline with Tween-80); 93 % of control (dose: 400.0 mg/kg/injection, schedule: Q04DX003 (ip), vehicle: saline with Tween-80).
`CCOC(=O)COC`: the T/C is, setting by setting: (dose: 50.0 mg/kg/injection, schedule: Q01DX009 (ip), vehicle: saline) 100 % of control; under setting [2], 96 % of control; under setting [3], 89 % of control.
For `ClCc1ccccc1CCc1ccccc1CCl`, the T/C under setting [4] was 105 % of control, the T/C under setting [5] is 94 % of control and the T/C under setting [6] is 105 % of control.
As to `Cc1cc(Cc2ccccc2)n[nH]1`, the T/C reads like this: (dose: 100.0 mg/kg/injection, schedule: Q01DX001 (ip), vehicle: Klucel (hydroxypropylcellulose) (HPC)) 107 % of control; (dose: 200.0 mg/kg/injection, schedule: Q01DX001 (ip), vehicle: Klucel (hydroxypropylcellulose) (HPC)) 102 % of control; (dose: 400.0 mg/kg/injection, schedule: Q01DX001 (ip), vehicle: Klucel (hydroxypropylcellulose) (HPC)) 108 % of control.
Regarding `N/C(=N\[N+](=O)[O-])Nc1ccccn1`, the T/C is 95 % of control under setting [7], 98 % of control under setting [8] and 109 % of control under setting [9].
Turning to `CCOC(=O)CNc1cccc(C(F)(F)F)c1`, the T/C was 98 % of control (dose: 100.0 mg/kg/injection, schedule: Q01DX009 (ip), vehicle: carboxymethylcellulose (CMC)); 100 % of control and 105 % of control under setting [7]; 93 % of control (dose: 200.0 mg/kg/injection, schedule: Q01DX009 (ip), vehicle: carboxymethylcellulose (CMC)); 109 % of control and 114 % of control under setting [8]; 98 % of control under setting [9].
With `O=C(Oc1ccccc1)c1cc(Br)c2ccccc2c1O`, the T/C is, setting by setting: (dose: 100.0 mg/kg/injection, schedule: Q01DX009 (ip), vehicle: saline with Tween-80) 96 % of control; under setting [4], 89 % of control; (dose: 200.0 mg/kg/injection, schedule: Q01DX009 (ip), vehicle: saline with Tween-80) 95 % of control; under setting [5], 97 % of control; (dose: 400.0 mg/kg/injection, schedule: Q01DX009 (ip), vehicle: saline with Tween-80) 93 % of control; under setting [6], 87 % of control.
As for `COc1ccc2c3csc4ccccc4c-3nc2c1`, the T/C was 98 % of control (dose: 12.5 mg/kg/injection, schedule: Q01DX009 (ip), vehicle: saline); 95 % of control (dose: 12.5 mg/kg/injection, schedule: Q04DX003 (ip), vehicle: saline); 111 % of control (dose: 25.0 mg/kg/injection, schedule: Q01DX009 (ip), vehicle: Klucel (hydroxypropylcellulose) (HPC)); 98 % of control (dose: 25.0 mg/kg/injection, schedule: Q01DX009 (ip), vehicle: saline); 95 % of control (dose: 25.0 mg/kg/injection, schedule: Q04DX003 (ip), vehicle: saline); 100 % of control (dose: 50.0 mg/kg/injection, schedule: Q01DX009 (ip), vehicle: Klucel (hydroxypropylcellulose) (HPC)). Further, the T/C (dose: 50.0 mg/kg/injection, schedule: Q04DX003 (ip), vehicle: saline) was 94 % of control.
With `OC(CF)C(O)C(O)C(O)CF` (configuration not stated), the T/C runs as follows: (dose: 75.0 mg/kg/injection, schedule: Q01DX009 (ip), vehicle: saline) 95 % of control; under setting [10], 101 % of control; under setting [11], 93 % of control; (dose: 300.0 mg/kg/injection, schedule: Q01DX009 (ip), vehicle: saline) 101 % of control; under setting [12], 93 % of control.
Turning to `COc1ccc2c(c1C)C(=O)c1ccccc1C2`, the T/C by setting is: under setting [13], 93 % of control; under setting [14], 101 % of control; (dose: 400.0 mg/kg/injection, schedule: Q01DX001 (ip), vehicle: saline with Tween-80) 90 % of control.
Regarding `CN(N=O)C(=O)NCCSc1nc2ncncc2[nH]1`, the T/C runs as follows: (dose: 31.0 mg/kg/injection, schedule: Q01DX001 (ip), vehicle: carboxymethylcellulose (CMC)) 87 % of control; (dose: 62.0 mg/kg/injection, schedule: Q01DX001 (ip), vehicle: carboxymethylcellulose (CMC)) 103 % of control; (dose: 93.0 mg/kg/injection, schedule: Q01DX001 (ip), vehicle: carboxymethylcellulose (CMC)) 106 % of control; (dose: 187.0 mg/kg/injection, schedule: Q01DX001 (ip), vehicle: carboxymethylcellulose (CMC)) 103 % of control; (dose: 250.0 mg/kg/injection, schedule: Q01DX001 (ip), vehicle: carboxymethylcellulose (CMC)) 103 % of control; (dose: 500.0 mg/kg/injection, schedule: Q01DX001 (ip), vehicle: carboxymethylcellulose (CMC)) 115 % of control. Also, the T/C reads like this: (dose: 750.0 mg/kg/injection, schedule: Q01DX001 (ip), vehicle: carboxymethylcellulose (CMC)) 123 % of control; (dose: 1000.0 mg/kg/injection, schedule: Q01DX001 (ip), vehicle: carboxymethylcellulose (CMC)) 117 % of control.
Take `O=C(O)C(O)c1ccc(Cl)cc1` (configuration not stated): the T/C is 96 % of control under setting [2] and 91 % of control under setting [3].
`CCCCCCCCCCCCCCCCCCNC(=O)Nc1cccc(OC)c1`: the T/C reads like this: (dose: 25.0 mg/kg/injection, schedule: Q04DX002 (ip), vehicle: saline with Tween-80) 102 % of control; (dose: 50.0 mg/kg/injection, schedule: Q04DX002 (ip), vehicle: saline with Tween-80) 89 % of control.
With `Nc1ccn(C2OC(CO)C(O)C(O)C2N)c(=O)n1` (configuration not stated), the T/C reads like this: under setting [10], 97 % of control; under setting [11], 103 % of control; under setting [12], 100 % of control.
In the case of `NNC(=O)C1CC2C=CCC(C2)C1` (configuration not stated), the T/C is, setting by setting: under setting [13], 98 % of control; under setting [14], 92 % of control.
In the case of `C=CCN(CC=C)c1ccc(N(CC)CC)cc1`, the T/C is 86 % of control (dose: 100.0 mg/kg/injection, schedule: Q01DX009 (ip), vehicle: Klucel (hydroxypropylcellulose) (HPC)); 97 % of control (dose: 100.0 mg/kg/injection, schedule: Q04DX003 (ip), vehicle: saline); 86 % of control (dose: 200.0 mg/kg/injection, schedule: Q01DX009 (ip), vehicle: Klucel (hydroxypropylcellulose) (HPC)); 105 % of control (dose: 200.0 mg/kg/injection, schedule: Q04DX003 (ip), vehicle: saline); 105 % of control (dose: 400.0 mg/kg/injection, schedule: Q04DX003 (ip), vehicle: saline).
For the compound `Cc1cc(C)c2nc(N)sc2c1`, the T/C under setting [1] was 94 % of control.

These data come from PubChem BioAssay AID248 (DTP/NCI, 2004).
